From patent publication US11071727B2, “Therapeutic targeting of proteolytic cleavage of the mixed lineage leukemia gene product (MLL1) by taspase1 using kinase inhibitors” (Northwestern University, priority 2018, dated 2021)

Columns and labels:
MLL1 chromatin occupancy = test: ChIP-seq of MLL1 occupancy in 293T cells; format: cell-based, human; conditions: relative to DMSO control
Experimental: FIG. 6. CKII inhibition increases genome-wide MLL occupancy and excludes SEC recruitment in MLL leukemia cells. (A) and (B) MLL1C occupancy in CX-4945 or TTP22 treated cells were shown relative to DMSO control. […] (C) Track examples of the MLL1 occupancy at the promoter regions of ELF2 and C6orf211. (D) CX-4945 inhibition of leukemia cell proliferation. Multiple MLL leukemia (orange lines) and non-MLL leukemia (blue lines) were cultured with different doses of CX-4945 for 3 days. Cell number was determined by cell counter and normalized to DMSO control. (E) SEM cells were treated with 0, 5 or 10 μM of CX-4945 for 30 hours and western blot was performed to determine the MLL1 full-length protein levels and MLL-AF4 fusion protein levels. (F) MLL-AFF1, AFF4 and ELL2 occupancies were decreased by CX-4945 treatment in SEM cells.
ChIP-seq Analysis. 5×10^7 cells were used for each ChIP assay, as performed as previously described (Chen et al. 2015). Peaks were called with MACS v1.4.2 (Zhang et al. 2008) using default parameters and were annotated by the HOMER software (Heinz et al. 2010). Metaplots were generated using ngsplot (Shen et al. 2014). […] Differential occupancy of MLL1 was evaluated by edgeR, and peaks with Benjamini-Hochburg adjusted p-values less than 0.05 were considered to be differentially occupied. […]

[1] = test system: MLL1 cleavage by taspase1; test: in vitro taspase1 cleavage assay on lysates of pretreated taspase1 KO cells; format: biochemical, human; conditions: 293T taspase1 KO cells pretreated 30 hours with CX-4945 (3 μM) or TTP22 (10 μM), compared with DMSO control
Experimental: FIG. 5. CKII inhibitors selectively increase full-length MLL1 protein levels by decreasing the phosphorylation of MLL1 near the cleavage sites. (A) Conservation of the sequences flanking MLL1-CS2, MLL2 and TFIIA cleavage sites and phosphorylated serine and threonine residues after the cleavage sites (highlighted in red). (B) and (C) 293T cells were transfected with vector control (VT), WT, AA or DD reporter constructs of MLL1-p75 or TFIIA. Western blot was performed with anti-Flag antibody for MLL1 (p75: FL, p47: cleaved) or TFIIA (p54: FL, p47: cleaved). (D) and (E) 293T cells were transfected with WT or AA reporter constructs of MLL1-p75 or TFIIA in the presence or absence of HA-taspase1. Western blot was performed with anti-Flag antibody for MLL1 or TFIIA, or anti-HA antibody for taspase1. (F) 293T cells were infected with shRNAs against CKIIα or CKIIα′. Western blot was performed with anti-MLL1C antibody for MLL1 full-length protein levels, and CKIIα or CKIIα′ for knockdown efficiency. (G) 293T cells were treated with DMSO or 10 μM CX-4945 for 30 hours. Cells were harvested and lysed for Western blot against MLL1, MLL2 or TFIIA using β-tubulin as the loading control. […]
in vitro taspase1 cleavage assay. […] Cleavage efficiency was detected by western blot against MLL1C and TFIIA using Hsp90 as the loading control.

MLL1 = test: Western blot of full-length MLL1 protein levels in cells treated with CKII inhibitors; format: cell-based, human; conditions: 293T, MCF7 and HCT116 cells, 0-20 μM, 30 hours, Western blot with MLL1C antibody
Experimental: FIG. 5. CKII inhibitors selectively increase full-length MLL1 protein levels by decreasing the phosphorylation of MLL1 near the cleavage sites. (A) Conservation of the sequences flanking MLL1-CS2, MLL2 and TFIIA cleavage sites and phosphorylated serine and threonine residues after the cleavage sites (highlighted in red). (B) and (C) 293T cells were transfected with vector control (VT), WT, AA or DD reporter constructs of MLL1-p75 or TFIIA. Western blot was performed with anti-Flag antibody for MLL1 (p75: FL, p47: cleaved) or TFIIA (p54: FL, p47: cleaved). (D) and (E) 293T cells were transfected with WT or AA reporter constructs of MLL1-p75 or TFIIA in the presence or absence of HA-taspase1. Western blot was performed with anti-Flag antibody for MLL1 or TFIIA, or anti-HA antibody for taspase1. (F) 293T cells were infected with shRNAs against CKIIα or CKIIα′. Western blot was performed with anti-MLL1C antibody for MLL1 full-length protein levels, and CKIIα or CKIIα′ for knockdown efficiency. (G) 293T cells were treated with DMSO or 10 μM CX-4945 for 30 hours. Cells were harvested and lysed for Western blot against MLL1, MLL2 or TFIIA using β-tubulin as the loading control. (H) and (I) 293T taspase1 KO cells were pre-treated with CX-4945 (3 μM) or TTP22 (10 μM) for 30 hours. Whole cell lysates from the two conditions were incubated with increasing concentrations of his-taspase1 and subject to in vitro taspase1 assay.
FIG. 13. CKII inhibitors increase full-length MLL1 protein levels. (A) Prediction of kinases that phosphorylate MLL1 near the taspase1 cleavage site. (B) Structure of the CKII inhibitors CX-4945, TTP22, DMAT and TTB. (C) Comparison of the IC50 and molecular weight of the four CKII inhibitors. […] Quantification of the band intensities was performed by ImageJ software. (E) and (F) in vitro taspase1 cleavage assay. Taspase1 KO cell lysates were incubated with recombinant his-tagged taspase1 (0, 1, 10, 100 or 1000 ng) and subject to in vitro taspase1 cleavage assay. Cleavage efficiency was shown as the blotting for MLL1 and TFIIA using Hsp90 as the loading control.
Cell culture. […]

Cc1ccc(-c2csc3ncnc(SCCC(=O)O)c23)cc1 [TTP22, 3-[[5-(4-Methylphenyl)thieno[2,3-d]pyrimidin-4-yl]thio]propanoic acid]
MLL1 occupancy (genome-wide) (MLL1 chromatin occupancy): global increase of MLL1 occupancy | cleavage efficiency by recombinant taspase1 protein [1]: cleavage efficiency was significantly diminished | MLL1 full-length protein levels (MLL1): dose-dependent increase of MLL1 full-length protein levels
